Molecular target: KRas (Homo sapiens, UniProt P01116, G12C)
Assay: KRas degradation in H2030 cells by Western blot (data of Table 5)
Type: cell-based
Parameters: host or cells: NCI-H2030
Settings: H2030 cells serum starved 24 hours, KRas immunoblot; for H2030 Degradation at 0.3 uM: treated 24 hours with 0.3 uM; for H2030 Degradation at 1 uM: treated 24 hours with 1 uM; for H2030 Degradation at 3 uM: treated 24 hours with 3 uM
Protocol: Cell Lines, Antibodies, and Reagents. NCI-H2030 (CRL-5914) and SW1573 (CRL-2170) cells were purchased from ATCC. Both cell lines are homozygous for the G12C mutation in KRas. NCI-H2030 cells were cultured in RPMI-1640 medium containing 1% penicillin-streptomycin and 10% fetal bovine serum (FBS). SW1573 cells were cultured in DMEM containing 1% penicillin-streptomycin and 10% FBS. The KRas detection antibody (Cat. No. LS-C175665) was purchased from LifeSpan Biosciences and was used at a dilution of 1:2000. GAPDH was detected using an antibody purchased from Cell Signaling Technology (Cat. No. 5174) and was diluted 1:3000. Secondary anti-mouse and anti-rabbit detection antibodies were purchased from Cell Signaling Technology (Cat. Nos. 7076 and 7074, respectively).
Compound Treatment and Western Blotting of the Data of Table 5. H2030 cells in 12-well plates were serum starved for 24 hours, and then treated with 0.3 uM, 1 uM, and 3 uM of the indicated bifunctional compound, for 24 hours. Cells were lysed in a Cell Signaling Technology Cell Lysis Buffer (Cat. No. #9803) supplemented with protease inhibitors, and proteins were separated by SDS-PAGE. KRas was detected by immunoblotting using the LSBio antibody (Cat. No. LS-C175665).
DC50 is the half-maximal degradation concentration—i.e., the concentration at which 50% degradation is observed. DMax is the maximum degradation efficacy is achieved—i.e., the maximal degradation observed) degradation data.

Row | SMILES | H2030 Degradation at 0.3 uM | H2030 Degradation at 1 uM | H2030 Degradation at 3 uM
1 | CCC(=O)N1CCN(c2nc(NCCC(=O)N(C)CCOCCOCCOCCOCCOCC(=O)N[C@H](C(=O)N3C[C@H](O)C[C@H]3C(=O)N[C@@H](C)c3ccc(-c4scnc4C)cc3)C(C)(C)C)nc3c(F)c(-c4cc(O)cc5ccccc45)c(Cl)cc23)CC1 [compound 7, (2S,4R)-1-((2S)-2-(tert-butyl)-24-((6-chloro-8-fluoro-7-(3-hydroxynaphthalen-1-yl)-4-(4-propionylpiperazin-1-yl)quinazolin-2-yl)amino)-21-methyl-4,22-dioxo-6,9,12,15,18-pentaoxa-3,21-diazatetracosanoyl)-4-hydroxy-N-((1S)-1-(4-(4-methyl-5H-114-thiazol-5-yl)phenyl)ethyl) pyrrolidine-2-carboxamide] | C (C < 25) | C (C < 25) | C (C < 25)
2 | C=CC(=O)N1CCN(c2nc(NCCC(=O)N(C)CCOCCOCCOCCOCC(=O)N[C@H](C(=O)N3C[C@H](O)C[C@H]3C(=O)N[C@@H](C)c3ccc(-c4scnc4C)cc3)C(C)(C)C)nc3c(F)c(-c4cc(O)cc5ccccc45)c(Cl)cc23)CC1 [compound 1, (2S,4R)-1-((2S)-21-((4-(4-acryloylpiperazin-1-yl)-6-chloro-8-fluoro-7-(3-hydroxynaphthalen-1-yl)quinazolin-2-yl)amino)-2-(tert-butyl)-18-methyl-4,19-dioxo-6,9,12,15-tetraoxa-3,18-diazahenicosanoyl)-4-hydroxy-N-((S)-1-(4-(4-methylthiazol-5-yl)phenyl)ethyl) pyrrolidine-2-carboxamide] | C (C < 25) | A (A ≥ 50) | A (A ≥ 50)
3 | CCC(=O)N1CCN(c2nc(NCCC(=O)N(C)CCOCCOCCOCCNc3cccc4c3C(=O)N(C3CCC(=O)NC3=O)C4=O)nc3c(F)c(-c4cc(O)cc5ccccc45)c(Cl)cc23)CC1 (stereo not drawn) [compound 8, 3-((6-chloro-8-fluoro-7-(3-hydroxynaphthalen-1-yl)-4-(4-propionylpiperazin-1-yl)quinazolin-2-yl)amino)-N-(2-(2-(2-(2-((2-(2,6-dioxopiperidin-3-yl)-1,3-dioxoisoindolin-4-yl)amino)ethoxy)ethoxy)ethoxy)ethyl)-N-methylpropanamide] | C (C < 25) | C (C < 25) | C (C < 25)
4 | C=CC(=O)N1CCN(c2nc(NCCC(=O)N(C)CCOCCOCCOCCNc3cccc4c3C(=O)N(C3CCC(=O)NC3=O)C4=O)nc3c(F)c(-c4cc(O)cc5ccccc45)c(Cl)cc23)CC1 (stereo not drawn) [compound 3, 3-((4-(4-acryloylpiperazin-1-yl)-6-chloro-8-fluoro-7-(3-hydroxynaphthalen-1-yl)quinazolin-2-yl)amino)-N-(2-(2-(2-(2-((2-(2,6-dioxopiperidin-3-yl)-1,3-dioxoisoindolin-4-yl)amino)ethoxy)ethoxy)ethoxy)ethyl)-N-methylpropanamide] | C (C < 25) | B (25 ≤ B < 50) | B (25 ≤ B < 50)
5 | C=CC(=O)N1CCN(c2nc(NCCC(=O)N(C)CCOCCOCCOCCOCCOc3ccc4c(c3)CN(C3CCC(=O)NC3=O)C4=O)nc3c(F)c(-c4cc(O)cc5ccccc45)c(Cl)cc23)CC1 (stereo not drawn) [compound 5, 3-((4-(4-acryloylpiperazin-1-yl)-6-chloro-8-fluoro-7-(3-hydroxynaphthalen-1-yl)quinazolin-2-yl)amino)-N-(14-((2-(2,6-dioxopiperidin-3-yl)-1-oxoisoindolin-5-yl)oxy)-3,6,9,12-tetraoxatetradecyl)-N-methylpropanamide] | C (C < 25) | B (25 ≤ B < 50) | B (25 ≤ B < 50)
6 | C=CC(=O)N1CCN(c2nc(NCCC(=O)N(C)CCOCCOCCOCC(=O)N[C@H](C(=O)N3C[C@H](O)C[C@H]3C(=O)N[C@@H](C)c3ccc(-c4scnc4C)cc3)C(C)(C)C)nc3c(F)c(-c4cc(O)cc5ccccc45)c(Cl)cc23)CC1 [compound 4, (2S,4R)-1-((2S)-18-((4-(4-acryloylpiperazin-1-yl)-6-chloro-8-fluoro-7-(3-hydroxynaphthalen-1-yl)quinazolin-2-yl)amino)-2-(tert-butyl)-15-methyl-4,16-dioxo-6,9,12-trioxa-3,15-diazaoctadecanoyl)-4-hydroxy-N-((S)-1-(4-(4-methylthiazol-5-yl)phenyl)ethyl) pyrrolidine-2-carboxamide] | C (C < 25) | B (25 ≤ B < 50) | B (25 ≤ B < 50)
7 | CCC(=O)N1CCN(c2nc(NCCC(=O)N(C)CCOCCOCCOCCOCCOc3ccc4c(c3)CN(C3CCC(=O)NC3=O)C4=O)nc3c(F)c(-c4cc(O)cc5ccccc45)c(Cl)cc23)CC1 (stereo not drawn) [compound 10, 3-((6-chloro-8-fluoro-7-(3-hydroxynaphthalen-1-yl)-4-(4-propionylpiperazin-1-yl)quinazolin-2-yl)amino)-N-(14-((2-(2,6-dioxopiperidin-3-yl)-1-oxoisoindolin-5-yl)oxy)-3,6,9,12-tetraoxatetradecyl)-N-methylpropanamide] | C (C < 25) | C (C < 25) | C (C < 25)
8 | CCC(=O)N1CCN(c2nc(NCCC(=O)N(C)CCOCCOCCOCCOCC(=O)N[C@H](C(=O)N3C[C@H](O)C[C@H]3C(=O)N[C@@H](C)c3ccc(-c4scnc4C)cc3)C(C)(C)C)nc3c(F)c(-c4cc(O)cc5ccccc45)c(Cl)cc23)CC1 [compound 6, (2S,4R)-1-((2S)-2-(tert-butyl)-21-((6-chloro-8-fluoro-7-(3-hydroxynaphthalen-1-yl)-4-(4-propionylpiperazin-1-yl)quinazolin-2-yl)amino)-18-methyl-4,19-dioxo-6,9,12,15-tetraoxa-3,18-diazahenicosanoyl)-4-hydroxy-N-((S)-1-(4-(4-methylthiazol-5-yl)phenyl)ethyl) pyrrolidine-2-carboxamide] | C (C < 25) | C (C < 25) | C (C < 25)
9 | C=CC(=O)N1CCN(c2nc(NCCC(=O)N(C)CCOCCOCCOCCOCCOCC(=O)N[C@H](C(=O)N3C[C@H](O)C[C@H]3C(=O)N[C@@H](C)c3ccc(-c4scnc4C)cc3)C(C)(C)C)nc3c(F)c(-c4cc(O)cc5ccccc45)c(Cl)cc23)CC1 [compound 2, (2S,4R)-1-((2S)-24-((4-(4-acryloylpiperazin-1-yl)-6-chloro-8-fluoro-7-(3-hydroxynaphthalen-1-yl)quinazolin-2-yl)amino)-2-(tert-butyl)-21-methyl-4,22-dioxo-6,9,12,15,18-pentaoxa-3,21-diazatetracosanoyl)-4-hydroxy-N-((S)-1-(4-(4-methylthiazol-5-yl)phenyl)ethyl) pyrrolidine-2-carboxamide] | C (C < 25) | A (A ≥ 50) | A (A ≥ 50)
10 | CCC(=O)N1CCN(c2nc(NCCC(=O)N(C)CCOCCOCCOCC(=O)N[C@H](C(=O)N3C[C@H](O)C[C@H]3C(=O)N[C@@H](C)c3ccc(-c4scnc4C)cc3)C(C)(C)C)nc3c(F)c(-c4cc(O)cc5ccccc45)c(Cl)cc23)CC1 [compound 9, (2S,4R)-1-((S)-2-(tert-butyl)-18-((6-chloro-8-fluoro-7-(3-hydroxynaphthalen-1-yl)-4-(4-propionylpiperazin-1-yl)-5H-312-quinazolin-2-yl)amino)-15-methyl-4,16-dioxo-6,9,12-trioxa-3,15-diazaoctadecanoyl)-4-hydroxy-N-((S)-1-(4-(4-methyl-312-thiazol-5-yl)phenyl)ethyl) pyrrolidine-2-carboxamide] | C (C < 25) | C (C < 25) | C (C < 25)

Source: US12552783B2, “Modulators of proteolysis and associated methods of use” (Arvinas Operations, Inc., priority 2018, dated 2026)
